Several values for one entry are separate records, joined by “and”; a condition that tells them apart may be missing. Equal entries are not always repeated. Inconclusive results and toxic doses are left out.
System: L1210 leukemia ip in BDF1 mice, survival T/C
Test: NCI In Vivo Anticancer Drug Screen. Data for tumor model L1210 Leukemia (intraperitoneal) in B6D2F1 (BDF1) mice
Settings: endpoint: mean survival time, higher = longer survival
Method in brief: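 Antitumor effect is assessed in tumor-bearing animals. Survival in the compound arm is compared with a vehicle-dosed control arm and expressed as their quotient.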

[1] = dose: 100.0 mg/kg/injection, schedule: Q04DX003 (ip), vehicle: Klucel (hydroxypropylcellulose) (HPC)
[2] = dose: 200.0 mg/kg/injection, schedule: Q04DX003 (ip), vehicle: Klucel (hydroxypropylcellulose) (HPC)
[3] = dose: 400.0 mg/kg/injection, schedule: Q04DX003 (ip), vehicle: Klucel (hydroxypropylcellulose) (HPC)
[4] = dose: 100.0 mg/kg/injection, schedule: Q01DX009 (ip), vehicle: Klucel (hydroxypropylcellulose) (HPC)
[5] = dose: 200.0 mg/kg/injection, schedule: Q01DX009 (ip), vehicle: Klucel (hydroxypropylcellulose) (HPC)
[6] = dose: 400.0 mg/kg/injection, schedule: Q01DX009 (ip), vehicle: Klucel (hydroxypropylcellulose) (HPC)
[7] = dose: 100.0 mg/kg/injection, schedule: Q04DX003 (ip), vehicle: saline with Tween-80
[8] = dose: 200.0 mg/kg/injection, schedule: Q04DX003 (ip), vehicle: saline with Tween-80
[9] = dose: 400.0 mg/kg/injection, schedule: Q04DX003 (ip), vehicle: saline with Tween-80
[10] = dose: 100.0 mg/kg/injection, schedule: Q01DX001 (ip), vehicle: saline with Tween-80
[11] = dose: 200.0 mg/kg/injection, schedule: Q01DX001 (ip), vehicle: saline with Tween-80
[12] = dose: 400.0 mg/kg/injection, schedule: Q01DX001 (ip), vehicle: saline with Tween-80
[13] = dose: 50.0 mg/kg/injection, schedule: Q01DX009 (ip), vehicle: saline
[14] = dose: 100.0 mg/kg/injection, schedule: Q01DX009 (ip), vehicle: saline
[15] = dose: 100.0 mg/kg/injection, schedule: Q04DX003 (ip), vehicle: saline
[16] = dose: 200.0 mg/kg/injection, schedule: Q01DX009 (ip), vehicle: saline
[17] = dose: 200.0 mg/kg/injection, schedule: Q04DX003 (ip), vehicle: saline
[18] = dose: 400.0 mg/kg/injection, schedule: Q04DX003 (ip), vehicle: saline
[19] = dose: 100.0 mg/kg/injection, schedule: Q01DX001 (ip), vehicle: saline
[20] = dose: 200.0 mg/kg/injection, schedule: Q01DX001 (ip), vehicle: saline
[21] = dose: 400.0 mg/kg/injection, schedule: Q01DX001 (ip), vehicle: saline
[22] = dose: 100.0 mg/kg/injection, schedule: Q01DX009 (ip), vehicle: saline with Tween-80
[23] = dose: 200.0 mg/kg/injection, schedule: Q01DX009 (ip), vehicle: saline with Tween-80
[24] = dose: 75.0 mg/kg/injection, schedule: Q01DX001 (ip), vehicle: carboxymethylcellulose (CMC)

N=C(N)N=Nc1ccc(NN=C(N)N)c2ccccc12
T/C (dose: 15.0 mg/kg/injection, schedule: Q01DX Z (ip), vehicle: saline): 94 % of control | T/C (dose: 15.0 mg/kg/injection, schedule: Q01DX Z (oral), vehicle: other): 103 % of control | T/C (dose: 30.0 mg/kg/injection, schedule: Q01DX Z (ip), vehicle: saline): 102 % of control | T/C (dose: 30.0 mg/kg/injection, schedule: Q01DX Z (oral), vehicle: other): 98 % of control | T/C (dose: 60.0 mg/kg/injection, schedule: Q01DX Z (oral), vehicle: other): 98 % of control | T/C (dose: 120.0 mg/kg/injection, schedule: Q01DX Z (oral), vehicle: other): 95 % of control

O=S(=O)(c1ccccc1)N1CC2C3C=CC(C3)C2C1 (stereo unspecified)
T/C [1]: 93 % of control | T/C [2]: 109 % of control | T/C [3]: 95 % of control

BrC[P+](c1ccccc1)(c1ccccc1)c1ccccc1
T/C (dose: 3.12 mg/kg/injection, schedule: Q04DX002 (ip), vehicle: saline): 108 % of control | T/C (dose: 6.25 mg/kg/injection, schedule: Q04DX002 (ip), vehicle: saline): 104 % of control | T/C (dose: 12.5 mg/kg/injection, schedule: Q04DX002 (ip), vehicle: saline): 105 % of control and 112 % of control

CCOC1C=CC(OC(C)=O)C(COC(C)=O)O1 (stereo unspecified)
T/C [4]: 108 % of control | T/C [1]: 96 % of control | T/C [5]: 100 % of control | T/C [2]: 96 % of control | T/C [6]: 104 % of control | T/C [3]: 94 % of control

O=C(O)c1ccc(Oc2ccc(C(=O)O)cc2)cc1
T/C [4]: 103 % of control | T/C [1]: 97 % of control | T/C [5]: 109 % of control | T/C [2]: 100 % of control | T/C [6]: 100 % of control | T/C [3]: 105 % of control

COc1ccc(OC)c(NC(=O)Nc2ccc(O)cc2)c1
T/C [7]: 98 % of control | T/C [8]: 98 % of control | T/C [9]: 93 % of control

COC(=O)CCCCCN1C(=O)c2cccc([N+](=O)[O-])c2C1=O
T/C [10]: 104 % of control | T/C [11]: 97 % of control | T/C [12]: 100 % of control

CNCCN1CCCC1
T/C [13]: 95 % of control | T/C [14]: 103 % of control | T/C [15]: 102 % of control | T/C [16]: 101 % of control | T/C [17]: 109 % of control

COCBr
T/C [14]: 110 % of control | T/C [15]: 103 % of control | T/C [16]: 101 % of control | T/C [17]: 103 % of control | T/C [18]: 94 % of control

CC(C)=CC(=O)CC(O)(C(F)(F)F)C(F)(F)Cl (stereo unspecified)
T/C [13]: 92 % of control | T/C [14]: 100 % of control

CNC(=O)Oc1cccc(N)c1
T/C (dose: 75.0 mg/kg/injection, schedule: Q01DX001 (ip), vehicle: saline): 109 % of control | T/C (dose: 150.0 mg/kg/injection, schedule: Q01DX001 (ip), vehicle: saline): 114 % of control

COCCCNc1ncnc2[nH]ncc12
T/C (dose: 15.0 mg/kg/injection, schedule: Q01DX015 (ip), vehicle: saline): 95 % of control | T/C (dose: 30.0 mg/kg/injection, schedule: Q01DX015 (ip), vehicle: saline): 101 % of control | T/C (dose: 50.0 mg/kg/injection, schedule: Q04DX003 (ip), vehicle: saline): 96 % of control | T/C (dose: 60.0 mg/kg/injection, schedule: Q01DX015 (ip), vehicle: saline): 97 % of control | T/C [19]: 106 % of control | T/C [15]: 98 % of control | T/C (dose: 120.0 mg/kg/injection, schedule: Q01DX015 (ip), vehicle: saline): 110 % of control | T/C [20]: 106 % of control | T/C [17]: 100 % of control | T/C [21]: 116 % of control

CCOC(=O)C1C(C#N)C2OC1C(Cl)C2Cl (stereo unspecified)
T/C [4]: 100 % of control | T/C [5]: 102 % of control | T/C [6]: 94 % of control

CC(C)(CCCOc1ccccc1)NC(=O)c1ccccc1
T/C (dose: 50.0 mg/kg/injection, schedule: Q01DX001 (ip), vehicle: saline): 100 % of control | T/C [19]: 100 % of control | T/C [20]: 103 % of control | T/C [21]: 102 % of control

NC(=O)N/N=C/c1ccccc1N
T/C [22]: 94 % of control | T/C [23]: 94 % of control | T/C (dose: 400.0 mg/kg/injection, schedule: Q01DX009 (ip), vehicle: saline with Tween-80): 96 % of control

COc1ccc(NC(=O)Oc2ccc(Cl)cc2C)c(OC)c1
T/C [4]: 104 % of control | T/C [5]: 108 % of control | T/C [6]: 108 % of control

O=C(O)CCCCCN1C(=O)C2=C(CCCC2)C1=O
T/C (dose: 75.0 mg/kg/injection, schedule: Q04DX003 (ip), vehicle: saline): 98 % of control | T/C (dose: 150.0 mg/kg/injection, schedule: Q04DX003 (ip), vehicle: saline): 103 % of control | T/C (dose: 300.0 mg/kg/injection, schedule: Q04DX003 (ip), vehicle: saline): 93 % of control

CCOC(=O)C[S][Sn]([Cl])([Cl])[S]CC(=O)OCC
T/C [10]: 100 % of control | T/C [11]: 92 % of control | T/C [12]: 87 % of control

O=C(c1ccc2ccccc2c1)c1cccc(F)c1C(=O)O (tested in a mixture with another compound)
T/C [24]: 95 % of control | T/C (dose: 150.0 mg/kg/injection, schedule: Q01DX001 (ip), vehicle: carboxymethylcellulose (CMC)): 90 % of control

Cc1ccccc1C(C)(O)Cc1nccn1Cc1ccccc1 (stereo unspecified)
T/C [15]: 90 % of control | T/C [17]: 95 % of control | T/C [18]: 103 % of control

CCOC(=O)C1=C(C)NC(C)=C(C(=O)OCC)C1C
T/C (dose: 100.0 mg/kg/injection, schedule: Q01DX001 (ip), vehicle: carboxymethylcellulose (CMC)): 111 % of control | T/C (dose: 200.0 mg/kg/injection, schedule: Q01DX001 (ip), vehicle: carboxymethylcellulose (CMC)): 116 % of control | T/C (dose: 400.0 mg/kg/injection, schedule: Q01DX001 (ip), vehicle: carboxymethylcellulose (CMC)): 106 % of control

CC[n+]1ccc2cc(OC)c(OC)cc2c1Cc1ccc(OC)c(OC)c1
T/C (dose: 25.0 mg/kg/injection, schedule: Q01DX009 (ip), vehicle: saline): 94 % of control | T/C [13]: 115 % of control | T/C [15]: 98 % of control

C=CCOc1ccccc1OC
T/C (dose: 50.0 mg/kg/injection, schedule: Q01DX009 (ip), vehicle: saline with Tween-80): 96 % of control | T/C [22]: 100 % of control | T/C [7]: 103 % of control | T/C [23]: 95 % of control | T/C [8]: 112 % of control

COc1ccc2c(c1)C=Cc1ccc(Cl)cc1N2
T/C [4]: 97 % of control | T/C [1]: 98 % of control | T/C [5]: 94 % of control | T/C [2]: 101 % of control | T/C [6]: 94 % of control | T/C [3]: 104 % of control

O=NN(CCCl)C(=O)Nc1cccc(O)c1
T/C (dose: 4.5 mg/kg/injection, schedule: Q01DX009 (ip), vehicle: other): 123 % of control | T/C (dose: 7.0 mg/kg/injection, schedule: Q01DX009 (ip), vehicle: other): 176 % of control | T/C (dose: 11.0 mg/kg/injection, schedule: Q01DX009 (ip), vehicle: other): 155 % of control | T/C (dose: 17.0 mg/kg/injection, schedule: Q01DX009 (ip), vehicle: carboxymethylcellulose (CMC)): 170 % of control | T/C (dose: 17.0 mg/kg/injection, schedule: Q01DX009 (ip), vehicle: other): 154 % of control | T/C (dose: 26.0 mg/kg/injection, schedule: Q01DX009 (ip), vehicle: carboxymethylcellulose (CMC)): 210 % of control | T/C (dose: 26.0 mg/kg/injection, schedule: Q01DX009 (ip), vehicle: other): 184 % of control | T/C (dose: 30.0 mg/kg/injection, schedule: Q01DX001 (ip), vehicle: carboxymethylcellulose (CMC)): 154 % of control | T/C (dose: 40.0 mg/kg/injection, schedule: Q01DX009 (ip), vehicle: carboxymethylcellulose (CMC)): 156 % of control | T/C (dose: 40.0 mg/kg/injection, schedule: Q01DX009 (ip), vehicle: other): 170 % of control | T/C (dose: 60.0 mg/kg/injection, schedule: Q01DX001 (ip), vehicle: carboxymethylcellulose (CMC)): 154 % of control and 168 % of control | T/C (dose: 60.0 mg/kg/injection, schedule: Q01DX009 (ip), vehicle: other): 121 % of control | T/C [24]: 118 % of control

COc1ccc(C2C=CC(c3ccccc3)C(c3ccccc3)C2[N+](=O)[O-])cc1OC (stereo unspecified)
T/C [7]: 96 % of control | T/C [8]: 94 % of control | T/C [9]: 104 % of control

Reference: PubChem BioAssay AID248 (DTP/NCI, 2004)
